Measured values: PubChem BioAssay AID2060503 (Molecular Pharmacology Branch, DTP, NCI, 2025)
pIC50: −log10 of the molar value.

Tested on: 817829-284-R-J1-PDC complex spheroids, viability
Experiment: Anticancer human tumor 817829-284-R-J1-PDC patient-derived colon adenocarcinoma cell line growth inhibition [GQUAD]
Settings: for pIC50: curve of first compound; for viability, T/C: stronger effect = lower value
Outline: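 Multi-cell-type spheroids of tumor cells with HUVEC and mesenchymal stem cells, treated with drug combinations. Concentrations descend in half-log steps from near clinical Cmax, or from 10 microM where Cmax is unknown; viability read-out.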
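Further: spheroids exposed to agents for 7 days before readout.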
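Wherever viability, T/C is given: percent viability relative to DMSO vehicle control taken as 100%.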

Compound `CC1COCCN1c1cc(C2(S(C)(=N)=O)CC2)nc(-c2ccnc3[nH]ccc23)n1` (configuration not stated) + CN(C)c1ccc(Nc2c3ccc(NC(=O)CCN4CCCC4)cc3nc3cc(NC(=O)CCN4CCCC4)ccc23)cc1 has a pIC50 (second compound 0.0316 µM) of 6.23, a pIC50 (second compound 0.1 µM) of 6.21 and a pIC50 (second compound 0.316 µM) of 6.23. It also gave a pIC50 (second compound 1 µM) of 6.25, a pIC50 (second compound 3.16 µM) of 6.24 and a pIC50 (second compound 10 µM) of 6.41. The viability, T/C (second compound 0.0316 µM, first compound 0.0316 µM) was 94.2%, the viability, T/C (second compound 0.0316 µM, first compound 0.1 µM) was 93.2% and the viability, T/C (second compound 0.0316 µM, first compound 0.316 µM) was 75.4%. It also gave a viability, T/C (second compound 0.0316 µM, first compound 1 µM) of 27.5%, a viability, T/C (second compound 0.0316 µM, first compound 3.16 µM) of 11.2% and a viability, T/C (second compound 0.0316 µM, first compound 10 µM) of 7.5%. For the same compound, the viability, T/C (second compound 0.1 µM, first compound 0.0316 µM) was 90.1%, the viability, T/C (second compound 0.1 µM, first compound 0.1 µM) was 95.4% and the viability, T/C (second compound 0.1 µM, first compound 0.316 µM) was 82.3%. For the same compound, the viability, T/C (second compound 0.1 µM, first compound 1 µM) was 26.4%, the viability, T/C (second compound 0.1 µM, first compound 3.16 µM) was 11.1% and the viability, T/C (second compound 0.1 µM, first compound 10 µM) was 7.72%. The viability, T/C (second compound 0.316 µM, first compound 0.0316 µM) was 99%, the viability, T/C (second compound 0.316 µM, first compound 0.1 µM) was 96.5% and the viability, T/C (second compound 0.316 µM, first compound 0.316 µM) was 79.8%. It also gave a viability, T/C (second compound 0.316 µM, first compound 1 µM) of 24.7%, a viability, T/C (second compound 0.316 µM, first compound 3.16 µM) of 9.67% and a viability, T/C (second compound 0.316 µM, first compound 10 µM) of 7.15%. It also gave a viability, T/C (second compound 1 µM, first compound 0.0316 µM) of 86%, a viability, T/C (second compound 1 µM, first compound 0.1 µM) of 98.5% and a viability, T/C (second compound 1 µM, first compound 0.316 µM) of 76%. The viability, T/C (second compound 1 µM, first compound 1 µM) was 24.1%, the viability, T/C (second compound 1 µM, first compound 3.16 µM) was 10.8% and the viability, T/C (second compound 1 µM, first compound 10 µM) was 7.23%. It also gave a viability, T/C (second compound 3.16 µM, first compound 0.0316 µM) of 91.4%, a viability, T/C (second compound 3.16 µM, first compound 0.1 µM) of 94.9% and a viability, T/C (second compound 3.16 µM, first compound 0.316 µM) of 70.1%. For the same compound, the viability, T/C (second compound 3.16 µM, first compound 1 µM) was 29.9%, the viability, T/C (second compound 3.16 µM, first compound 3.16 µM) was 13% and the viability, T/C (second compound 3.16 µM, first compound 10 µM) was 7.64%. It also gave a viability, T/C (second compound 10 µM, first compound 0.0316 µM) of 99.6%, a viability, T/C (second compound 10 µM, first compound 0.1 µM) of 87.9% and a viability, T/C (second compound 10 µM, first compound 0.316 µM) of 57.1%. For the same compound, the viability, T/C (second compound 10 µM, first compound 1 µM) was 20.3%, the viability, T/C (second compound 10 µM, first compound 3.16 µM) was 9.51% and the viability, T/C (second compound 10 µM, first compound 10 µM) was 5%.
